According to US8354419B2, “Benzimidazole analogues for the treatment or prevention of flavivirus infections” (Vertex Pharmaceuticals Incorporated, priority 2009, dated 2013):

Test system: HCV (Ib) RNA replication
Assay: Cell-based luciferase reporter HCV (1b) RNA replication assay (replicon cell lines Huh-7 5.2 and ET)
Parameters: species or system Hepatitis C virus
Details: Hepatitis C virus, Huh-7, 96 h, HCV 1b genotype replicon, luciferase readout, 4 days incubation; read-out: EC50_1b
Description: Cell-Based Luciferase Reporter HCV (Ib) RNA Replication Assay Cell Culture
Replicon cell lines Huh-7, 5.2 and ET which are derived from the Huh-7 hepatocarcinoma cell line are maintained in culture as generally described in Krieger, N; Lohmann, V; Bartenschlager, R. Enhancement of hepatitis C virus RNA replication by cell culture-adaptive mutations. J. Virol. 2001, 75, 4614-4624. The Huh-7, 5.2 cells contain the highly cell culture-adapted replicon I389luc-ubi-neo/NS3-3′/5.1 construct that carries, in addition to the neomycin gene, an integrated copy to the firefly luciferase gene (Krieger, N; Lohmann, V; Bartenschlager, R. Enhancement of hepatitis C virus RNA replication by cell culture-adaptive mutations. J. Virol. 2001, 75, 4614-4624). This cell line allows measurement of HCV RNA replication and translation by measuring luciferase activity. It has been previously shown that the luciferase activity tightly follows the replicon RNA level in these cells (Krieger, N; Lohmann, V; Bartenschlager, R. Enhancement of hepatitis C virus RNA replication by cell culture-adaptive mutations. J. Virol. 2001, 75, 4614-4624). The Huh-7, ET cell line has the same features as those mentioned for Huh-7, 5.2 cell line, except that ET cells are more robust and contain an adaptative mutation in the HCV NS4B gene instead of NS5A. Both cell lines are maintained in cultures at a sub-confluent level (<85%) as the level of replicon RNA is highest in actively proliferating cells. The culture media used for cell passaging consist of DMEM (Gibco BRL Laboratories, Mississauga, ON, Canada) supplemented with 10% foetal bovine serum with 1% penicillin/streptomycin, 1% glutamine, 1% sodium pyruvate, 1% non-essential amino acids, and 180 ug/ml of G418 final concentration. Cells are incubated at 37° C., in an atmosphere of 5% CO2 and passaged twice a week to maintain sub-confluence.
Approximately 3000 viable Huh-7, 5.2 or ET cells (100 μl) are plated per well in a white opaque 96-well microtiter plate. The cell culture media used for the assay is the same as described above except that it contains no G418 and no phenol red. After an incubation period of 3-4 hours at 37° C. in a 5% CO2 incubator, compounds (100 μl) are added at various concentrations. Cells are then further incubated for 4 days at 37° C. in a 5% CO2 incubator. Thereafter, the culture media is removed and cells are lysed by the addition of 95 μL of the luciferase buffer (luciferin substrate in buffered detergent). Cell lysates are incubated at room temperature and protected from direct light for at least 10 minutes. Plates are read for luciferase counts using a luminometer (Wallac MicroBeta Trilux, Perkin ELmer™, MA, USA).
The 50% inhibitory concentrations (IC50s) for inhibitory effect are determined from dose response curves using eleven concentrations per compound in duplicate. Curves are fitted to data points using nonlinear regression analysis, and IC50s are interpolated from the resulting curve using GraphPad Prism software, version 2.0 (GraphPad Software Inc., San Diego, Calif., USA).
Table 2 show compounds representative of the present invention and the EC50 values against the HCV 1b genotype.

Compound	EC50 [nM]
[2H]C1([2H])Oc2c(-c3ccc4[nH]c([C@@H]5CCCN5C(=O)[C@@H](NC(=O)OC)C(C)C)nc4c3)ccc(-c3ccc4[nH]c([C@@H]5CCCN5C(=O)[C@@H](NC(=O)OC)C(C)C)nc4c3)c2O1 [Compound 194]	≤ 5
COC(=O)NC(C(=O)N1CCC[C@H]1c1nc2cc(-c3ccc(-c4ccc5[nH]c([C@@H]6CCCN6C(=O)C(NC(=O)OC)C(C)(C)F)nc5c4)cc3)ccc2[nH]1)C(C)(C)F (stereo partly shown) [Compound 180]	≤ 5
COC(=O)N[C@H](C(=O)N1CCC[C@H]1c1nc2cc(-c3cnc(-c4ccc5[nH]c([C@@H]6CCCN6C(=O)[C@@H](NC(=O)OC)C(C)C)nc5c4)c(C)c3)ccc2[nH]1)C(C)C [Compound 43, Methyl N-[(1S)-1-[(2S)-2-[5-[5-[2-[(2S)-1-[(2S)-2-(methoxycarbonylamino)-3-methyl-butanoyl]pyrrolidin-2-yl]-1H-benzimidazol-5-yl]-3-methyl-2-pyridyl]-1H-benzimidazol-2-yl]pyrrolidine-1-carbonyl]-2-methyl-propyl]carbamate]	≤ 5
COC(=O)N[C@H](C(=O)N1CCCC[C@H]1c1nc2cc(C#Cc3ccc4[nH]c([C@@H]5CCCCN5C(=O)[C@@H](NC(=O)OC)C(C)C)nc4c3)ccc2[nH]1)C(C)C [Compound 58]	≤ 5
COC(=O)N[C@@H](C)C(=O)N1CCC[C@H]1c1nc2cc(C#Cc3ccc4[nH]c([C@@H]5CCCN5C(=O)[C@H]5CCCO5)nc4c3)ccc2[nH]1 [Compound 56]	≤ 5
COC(=O)N[C@H](C(=O)N1CCC[C@H]1c1nc2cc(-c3ccc(-c4ccc5nc([C@@H]6CCCN6C(=O)[C@@H](NC(=O)OC)C(C)C)[nH]c5c4)cc3C)ccc2[nH]1)C(C)C [Compound 7, ((S)-1-{(S)-2-[5-(4-{2-[(S)-1-((S)-2-Methoxycarbonylamino-3-methyl-butyryl)-pyrrolidin-2-yl]-1H-benzoimidazol-5-yl}-2-methyl-phenyl)-1H-benzoimidazol-2-yl]-pyrrolidine-1-carbonyl}-2-methyl-propyl)-carbamic acid methyl ester]	≤ 5
COC(=O)N[C@H](C(=O)N1CCC[C@H]1c1nc2cc(-c3cc(C)c(-c4ccc5nc([C@@H]6CCCN6C(=O)[C@@H](NC(=O)OC)C(C)C)[nH]c5c4)cc3C)ccc2[nH]1)C(C)C [Compound 14, ((S)-1-{(S)-2-[5-(4-{2-[(S)-1-((S)-2-Methoxycarbonylamino-3-methyl-butyryl)-pyrrolidin-2-yl]-1H-benzoimidazol-5-yl}-2,5-dimethyl-phenyl)-1H-benzoimidazol-2-yl]-pyrrolidine-1-carbonyl}-2-methyl-propyl)-carbamicacid methyl ester]	≤ 5
c1cc(-c2ccc3[nH]c([C@@H]4CCCN4CCC4CCOCC4)nc3c2)ccc1-c1ccc2[nH]c(C3CCCN3CCC3CCOCC3)nc2c1 (stereo partly shown) [Compound 192]	5 to 5000
COC(=O)N(C)[C@H](C(=O)N1C[C@@H](C)C[C@H]1c1nc2ccc(C#CC#Cc3ccc4nc([C@@H]5C[C@H](C)CN5C(=O)[C@H](C(C)C)N(C)C(=O)OC)[nH]c4c3)cc2[nH]1)C(C)C [Compound 274]	≤ 5
CC(C)(C)OC(=O)N1CCCC[C@H]1c1nc2cc(C#Cc3ccc4[nH]c([C@@H]5CCCCN5C(=O)OC(C)(C)C)nc4c3)ccc2[nH]1 [Compound 92]	≤ 5
COC(=O)N[C@H](C(=O)N1CCC[C@H]1c1nc2ccc(N3CCN(c4ccc5nc([C@@H]6CCCN6C(=O)[C@@H](NC(=O)OC)C(C)C)[nH]c5c4)CC3)cc2[nH]1)C(C)C [Compound 229]	≤ 5
COC(=O)N[C@H](C(=O)N1CC2(CC2)C[C@H]1c1nc2cc(-c3ccc(-c4ccc5[nH]c([C@@H]6CC7(CC7)CN6C(=O)[C@@H](NC(=O)OC)C(C)C)nc5c4)cc3)ccc2[nH]1)C(C)C [Compound 245]	≤ 5
COC(=O)N[C@H](C(=O)N1CCC[C@H]1c1nc2cc(N3CCN(c4ccc5nc([C@@H]6CCCN6C(=O)[C@@H](NC(=O)OC)C(C)C)[nH]c5c4)[C@H](C)C3)ccc2[nH]1)C(C)C [Compound 326]	≤ 5
COC(=O)N(C)[C@H](C(=O)N1C[C@@H](C)C[C@H]1c1nc2cc(-c3ccc(-c4ccc5[nH]c([C@@H]6C[C@H](C)CN6C(=O)[C@H](C(C)C)N(C)C(=O)OC)nc5c4)c(C)c3)ccc2[nH]1)C(C)C [Compound 266]	≤ 5
COC(=O)N[C@H](C(=O)N1CCC[C@H]1c1nc2cc(C#Cc3ccc4[nH]c([C@@H]5CCCN5C(=O)OC(C)(C)C)nc4c3)ccc2[nH]1)C(C)C [Compound 34, (S)-2-(5-{2-[(S)-1-((S)-2-Methoxycarbonylamino-3-methyl-butyryl)-pyrrolidin-2-yl]-1H-benzoimidazol-5-ylethynyl}-1H-benzoimidazol-2-yl)-pyrrolidine-1-carboxylic acid tert-butyl ester]	5 to 5000
COC(=O)N[C@H](C(=O)N1CCC[C@H]1c1nc2cc(-c3ccc(-c4ccc5nc([C@@H]6CCCN6C(=O)[C@@H](NC(=O)OC)C(C)C)[nH]c5c4)cc3)ccc2[nH]1)C(C)C [Compound 1, ((S)-1-{(S)-2-[5-(4-{2-[(S)-1-((S)-2-Methoxycarbonylamino-3-methyl-butyryl)-pyrrolidin-2-yl]-1H-benzoimidazol-5-yl}-phenyl)-1H-benzoimidazol-2-yl]-pyrrolidine-1-carbonyl}-2-methyl-propyl)-carbamic acid methyl ester]	≤ 5
COC(=O)N[C@H](C(=O)N1CCC[C@H]1c1nc2cc(N3CCCN(c4ccc5nc([C@@H]6CCCN6C(=O)[C@@H](NC(=O)OC)C(C)C)[nH]c5c4)CC3)ccc2[nH]1)C(C)C [Compound 328]	≤ 5
COC(=O)N[C@H](C(=O)N1CCC[C@H]1c1nc2cc(-c3ccc(-c4ccc5nc([C@@H]6CCCN6C(=O)[C@@H](NC(=O)OC)C(C)(C)O)[nH]c5c4)c4c3OCO4)ccc2[nH]1)C(C)(C)O [Compound 219]	≤ 5
COC(=O)N[C@H](C(=O)N1CCC[C@H]1c1nc2cc(-c3cc(F)c(-c4ccc5nc([C@@H]6CCCN6C(=O)[C@@H](NC(=O)OC)C(C)C)[nH]c5c4)cc3F)ccc2[nH]1)C(C)C [Compound 42, ((S)-1-{(S)-2-[5-(4-{2-[(S)-1-((S)-2-Methoxycarbonylamino-3-methyl-butyryl)-pyrrolidin-2-yl]-1H-benzoimidazol-5-yl}-2,5-difluoro-phenyl)-1H-benzoimidazol-2-yl]-pyrrolidine-1-carbonyl}-2-methyl-propyl)-carbamicacid methyl ester]	≤ 5
COC(=O)N[C@H](C(=O)N1CC[C@H]1c1nc2ccc(-c3ccc(-c4ccc5nc([C@@H]6CCN6C(=O)[C@@H](NC(=O)OC)C(C)C)[nH]c5c4)cc3)cc2[nH]1)C(C)C [Compound 145]	≤ 5
COC(=O)N[C@H](C(=O)N1CC[C@@H](O)[C@H]1c1nc2ccc(-c3ccc(-c4ccc5nc([C@@H]6[C@H](O)CCN6C(=O)[C@@H](NC(=O)OC)C(C)C)[nH]c5c4)cc3)cc2[nH]1)C(C)C [Compound 235]	≤ 5
C[C@H]1CN(c2ccc3nc([C@@H]4CCCN4C(=O)OC(C)(C)C)[nH]c3c2)CCN1c1ccc2nc([C@@H]3CCCN3C(=O)OC(C)(C)C)[nH]c2c1 [Compound 275]	5 to 5000
